Reference: patent US20250306008A1, “PHARMACEUTICAL COMPOSITION FOR TREATING OR PREVENTING MALIGNANT BREAST CANCER” (KOREA ADVANCED INSTITUTE OF SCIENCE AND TECHNOLOGY, priority 2021, published 2025)

How the values were obtained:
MDA-MB231 cells = assay: Tamoxifen drug response (Incucyte confluency) after BCL11A and HDAC1/2 inhibition; assay type: cell-based; details: tamoxifen 10 uM
Method: (§1) Briefly, it is as follows: Cells were plated in 1×10^4 cells (3 repetitions for each condition; triplicate), after 24 hours, the cells were treated with the tamoxifen drug (10 uM) and monitored by taking pictures at 3-hour intervals using Incucyte for 72 hours. After that, the confluency of the cells in the pictures was calculated and the sensitivity of the cells to various drugs was graphed.

BT20 cells = assay: as above; assay type: cell-based; details: tamoxifen 10 uM
Method: as §1

T47D cell line = assay: Tamoxifen drug response after BCL11A and HDAC1/2 overexpression; assay type: cell-based, human
Source text: The present inventors confirmed the tamoxifen drug response in human breast cancer cell lines T47D and MCF7 upon overexpression (OE) of BCL11A and HDAC1/2.

breast cancer patients = assay: Patients' drug response to tamoxifen according to BCL11A and HDAC1/2 expression; set-up: species or system human; details: patient group with low expression of BCL11A and HDAC1/2 compared to the group with high expression

Compound | sensitivity of treated cells to Tamoxifen (cell confluency) (MDA-MB231 cells; MDA-MB231, monitored 72 hours) | sensitivity of treated cells to Tamoxifen (cell confluency) (BT20 cells; BT20, monitored 72 hours) | sensitivity of control cells (shScrambled) to Tamoxifen (MDA-MB231 cells; MDA-MB231 control cells (shScrambled), 72 hours) | sensitivity of control cells (shScrambled) to Tamoxifen (BT20 cells; BT20 control cells (shScrambled), 72 hours) | sensitivity to tamoxifen of overexpressing cells (T47D cell line; T47D cells overexpressing BCL11A-OE, HDAC1/2-OE, or both) | response of control cells to tamoxifen (T47D cell line; T47D control cells) | sensitivity of patient group to the tamoxifen drug (breast cancer patients)
shBCL11A: shRNA (GCATAGACGATGGCACTGTTA; SEQ ID NO: 1) designed to target the BCL11A gene, used as the BCL11A inhibitor | some sensitivity | some sensitivity | – | – | – | – | –
CC/C(=C(\c1ccccc1)c1ccc(OCCN(C)C)cc1)c1ccccc1 [Tamoxifen, tamoxifen] | – | – | did not show sensitivity | did not show sensitivity | did not show sensitivity | responded | higher sensitivity
